Assay results published in US12227520B2 (priority 2019, dated 2025).
pEC50: −log10 of the molar value. Like-named read-outs stand apart in the source and are kept apart here.

Legend:
uninfected MT-4 cells = assay: Cytotoxicity assay in MT-4 cells; assay type: cell-based, human; conditions: uninfected MT-4 cells, 5 days incubation
In short: (§1)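 Infected MT-4 cells (HIV-1 IIIB, fresh 1:250 dilution of concentrated stock) or mock-infected cells exposed to compounds for 5 days at 37 °C. Viability by CellTiter-Glo luminescence; 5 μM AZT positive control, no-drug negative control. Uninfected cells used for cytotoxicity, with 10 μM puromycin as base-level cytotoxicity control.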

[1] = Cytotoxicity assay in MT-4 cells; assay type: cell-based, human; conditions: human, uninfected MT-4 cells, 5 days incubation; read-out: CC50
In short: as §1

pLai RLuc reporter virus = assay: microbe, parasite or virus in culture; assay type: cell-based, HIV
In short: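 MT-4 cells pre-infected 2 h at 37 °C with pLai RLuc virus, then exposed to 1:3 serial dilutions of compound in RPMI/10% FBS with or without 50% human serum for 72 h at 37 °C. Renilla luminescence read-out; serum shift = EC50(HS/CCM)/EC50(CCM).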

HIV-1 (IIIB) = assay: Antiviral assay in MT-4 cells (HIV MT-4 antiviral assay); assay type: cell-based; conditions: HIV-1 (IIIB) in MT-4 cells, 5 days incubation
In short: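 MT-4 cells infected with HIV-1 IIIB (1:250 diluted stock) and exposed to 1:3 serially diluted compound in RPMI with 10% FBS. Viability read by CellTiter-Glo luminescence after 5 days at 37° C; mock-infected cells and 5 μM AZT as controls.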

[2] = Human immunodeficiency virus 1, 72 h, read-out: Antiviral Serum Shift RLuc 50% HS, HS/CCM (RPMI media, 10% FBS, 50% HS, 1% P/S), 72-h incubation
[3] = Human immunodeficiency virus 1, 72 h, read-out: Antiviral Serum Shift RLuc CCM, CCM (RPMI media, 10% FBS, 1% P/S), 72-h incubation
[4] = read-out: Antiviral Serum Shift RLuc 50% HS, HS/CCM (RPMI media, 10% FBS, 50% HS, 1% P/S), 72-h incubation
[5] = read-out: Antiviral Serum Shift RLuc CCM, CCM (RPMI media, 10% FBS, 1% P/S), 72-h incubation

Compound | CC50 (uninfected MT-4 cells) | CC50 at 5 days [1] | pEC50 (pLai RLuc reporter virus; [2]) | pEC50 (pLai RLuc reporter virus; [3]) | pEC50 (HIV-1 (IIIB); read-out: EC50) | pEC50 (pLai RLuc reporter virus; [4]) | pEC50 (pLai RLuc reporter virus; [5]) | pEC50 (pLai RLuc reporter virus; CCM (RPMI media, 10% FBS, 1% P/S), 72-h incubation, read-out: Antiviral Serum Shift RLuc CCM) | pEC50 (pLai RLuc reporter virus; HS/CCM (RPMI media, 10% FBS, 50% HS, 1% P/S), 72-h incubation, read-out: Antiviral Serum Shift RLuc 50% HS) | pEC50 (HIV-1 (IIIB))
O=C(NCc1ccc(F)cc1F)c1cn2c(c(O)c1=O)C(=O)N1CCc3ccccc3[C@@H]2C1 [Example 64-1, (13R)—N-(2,4-difluorobenzyl)-4-hydroxy-3,5-dioxo-3,5,8,13-tetrahydro-7H-6,13-methanobenzo[g]pyrido[1,2-a][1,4]diazonine-2-carboxamide] | 12300 nM | 14800 nM | 8.48 | 9.50 | – | – | – | – | – | –
O=C(NCc1c(F)cc(F)cc1F)c1cn2c(c(O)c1=O)C(=O)N1C[C@@H]2CCC[C@@H]1CF [Example 180, (3R,7S)-3-(fluoromethyl)-12-hydroxy-1,11-dioxo-N-(2,4,6-trifluorobenzyl)-1,4,5,6,7,11-hexahydro-3H-2,7-methanopyrido[1,2-a][1,4]diazonine-10-carboxamide] | 10400 nM | – | – | – | 8.92 | 7.87 | 9.49 | – | – | –
(3S,7S)-5-fluoro-12-hydroxy-3-methyl-1,11-dioxo-N-(2,4,6-trifluorobenzyl)-1,4,7,11-tetrahydro-3H-2,7-methanopyrido[1,2-a][1,4]diazonine-10-carboxamide [Example 118-1] | 11500 nM | – | – | – | 9.10 | – | – | 9.53 | 9.06 | –
CC1CCCN2CC1n1cc(C(=O)NCc3ccc(F)cc3F)c(=O)c(O)c1C2=O (centres unmarked) [Example 17-2b, N-(2,4-difluorobenzyl)-12-hydroxy-6-methyl-1,11-dioxo-1,4,5,6,7,11-hexahydro-3H-2,7-methanopyrido[1,2-a][1,4]diazonine-10-carboxamide] | 11000 nM | – | – | – | 8.92 | 6.99 | 9.51 | – | – | –
O=C(NCc1ccc(F)cc1F)c1cn2c(c(O)c1=O)C(=O)N1CC2CCc2cc(F)c(F)cc21 (single isomer, unassigned) [Example 50-1] | > 13500 nM | – | 9.02 | 9.58 | – | – | – | – | – | 8.86
